Assay results reported in US20130280269A1, “Manipulation of HSP70 and IRE1Alpha Protein Interactions” (National University of Ireland, priority 2010, published 2013).

B1: IRE1α ΔC-HA (enzyme)
chain: IFGSTSTVTLPETLLFVSTLDGSLHAVSKRTGSIKWTLKEDPVLQVPTHVEEPAFLPDPNDGSLYTLGSKNNEGLTKLPFTIPELVQASPCRSSDGILYMGKKQDIWYVIDLLTGEKQQTLSSAFADSLCPSTSLLYLGRTEYTITMYDTKTRELRWNATYFDYAASLPEDDVDYKMSHFVSNGDGLVVTVDSESGDVLWIQNYASPVVAFYVWQREGLRKVMHINVAVETLRYLTFMSGEVGRITKWKYPFPKETEAKSKLTPTLYVGKYSTSLYASPSMVHEGVAVVPRGSTLPLLEGPQTDGVTIGDKGECVITPSTDVKFDPGLKSKNKLNYLRNYWLLIGHHETPLSASTKMLERFPNNLPKHRENVIPADSEKKSFEEVINLVDQTSENAPTTVSRDVEEKPAHAPARPEAPVDSMLKDMATIILSTFLLIGWVAFIITYPLSMHQQQQLQHQQFQKELEKIQLLQQQQQQLPFH
notes: HA-tagged IRE1α lacking the cytosolic C-terminal region; also called IRE1α DC-HA; not shown: HA tag

Columns and labels:
PC12 cells [1] = experiment: Loss of mitochondrial membrane potential (ΔΨm), TMRE staining and flow cytometry; assay type: cell-based, Rat; conditions: 48 h, thapsigargin 0.25 μM
Method: (§1) FIG. 2. Hsp72 prevents ER stress-induced loss of mitochondrial membrane potential and cytochrome c release. (A) The control (Neo) and Hsp72 expressing (Hsp72) PC12 cells were either untreated (Control) or treated with (0.25 μM) Tg for the indicated time and mitochondrial membrane potential was assessed by TRME staining and flow cytometry. A representative image of three independent experiments is shown. (B) The control (Neo) and Hsp72 expressing (Hsp72) PC12 cells were treated (0.25 μM) Tg for indicated time points. Following treatment cells were incubated with TMRE (100 nM). Mitochondrial membrane potential was monitored by measuring the fluorescence intensity at 582 nm (FL2). Average and error bars represent mean±SD from three independent experiments. (C) The control (Neo) and Hsp72 expressing (Hsp72) PC12 cells were treated with (0.25 μM) Tg for the indicated time. Cytosolic extracts were prepared as described in materials and methods and resolved by SDS-PAGE followed by western blotting using antibodies against Cytochrome c and β-actin.
The effect of Hsp72 on the dissipation of ΔΨm and release of cytochrome c to the cytosol upon exposure to ER stress stimuli was evaluated. To quantify ΔΨm, probe tetramethylrhodamine ethyl ester (TMRE, Molecular Probes), a potentiometric fluorescent dye that incorporates into mitochondria in a ΔΨm-dependent manner, was used. Cells were trypsinized and then were either left untreated or treated with 0.25 μM thapsigargin. The cells were then incubated with TMRE for 30 min in the dark and analyzed by flow cytometry using a FACSCalibur instrument. […] The expression of Hsp72 inhibited the loss of ΔΨm (FIG. 2A). At 48 h, loss of ΔΨm was detected in 80-90% of Neo cells treated with thapsigargin or tunicamycin, respectively (FIG. 2B).

PC12 cells [2] = experiment: Release of cytochrome c into the cytosol, western blot of cytosolic extracts; assay type: cell-based, Rat; conditions: 0.25 μM Tg, 24 h
Method: as §1
To further study the involvement of mitochondria in ER stress-induced cell death, the release of cytochrome c into the cytosol was assessed. […]

[3] = biological target: T1, wild-type Hsp72 (inducible form of Hsp70), stably expressed in PC12 cells (Homo sapiens (Human), UniProt P0DMV8 2-641, limits assumed); experiment: co-immunoprecipitation with HA-agarose from Hsp72-expressing PC12 cells, western blot (FIG. 5C)
T1 construct: Expressed from a plasmid (gift of Dr. Tomomi Gotoh) in rat PC12 cells and tested in cell lysates by co-immunoprecipitation; also called Hsp72 WT; inducible Hsp70
Method: FIG. 5. Hsp72 forms a protein complex with IRE1α, and ATPase domain of HSP72 is critical for IRE1α binding. (A) Schematic diagram for IRE1α structure domains and expression constructs. (B) Schematic diagram for Hsp72 structure domains and expression constructs. (C) Hsp72 expressing PC12 cells (Hsp2) were transfected with empty vector (EV) or expression vectors for IRE1α FL-HA or IRE1α ΔC-HA. After 24 h, cells were either left untreated (UT) or treated with (0.25 μM) Tg for 12 h and then the co-precipitation of Hsp72 with IRE1α FL-HA or IRE1α ΔC-HA was evaluated by IP and western blot. (D) PC12 cells expressing the indicated Hsp72 constructs were transfected with IRE1α FL-HA. […] Co-precipitation of wild-type, ΔATPase and ΔEEVD mutant of Hsp72 with IRE1α FL-HA was evaluated by IP and western blot. […] After 48 hr, IRE1α FL-HA was immunoprecipitated and its association with endogenous Hsp72 was assessed by western blot. (F) Endogenous Hsp72 was immunoprecipitated from HEK 293 cells transiently transfected with IRE1α FL-HA expression vector or empty vector (EV), and its association with IRE1α was determined by western blot analysis. […]
Interaction of Hsp72-IRE1α was determined by co-immunoprecipitation assays. […] Protein complexes were extracted by boiling the beads with 2× lane marker buffer and analysed by western blotting as described above using the primary antibody IRE1α (Cell Signalling Cat#3294S). […]

T1 sequence (P0DMV8 2-641 limits assumed): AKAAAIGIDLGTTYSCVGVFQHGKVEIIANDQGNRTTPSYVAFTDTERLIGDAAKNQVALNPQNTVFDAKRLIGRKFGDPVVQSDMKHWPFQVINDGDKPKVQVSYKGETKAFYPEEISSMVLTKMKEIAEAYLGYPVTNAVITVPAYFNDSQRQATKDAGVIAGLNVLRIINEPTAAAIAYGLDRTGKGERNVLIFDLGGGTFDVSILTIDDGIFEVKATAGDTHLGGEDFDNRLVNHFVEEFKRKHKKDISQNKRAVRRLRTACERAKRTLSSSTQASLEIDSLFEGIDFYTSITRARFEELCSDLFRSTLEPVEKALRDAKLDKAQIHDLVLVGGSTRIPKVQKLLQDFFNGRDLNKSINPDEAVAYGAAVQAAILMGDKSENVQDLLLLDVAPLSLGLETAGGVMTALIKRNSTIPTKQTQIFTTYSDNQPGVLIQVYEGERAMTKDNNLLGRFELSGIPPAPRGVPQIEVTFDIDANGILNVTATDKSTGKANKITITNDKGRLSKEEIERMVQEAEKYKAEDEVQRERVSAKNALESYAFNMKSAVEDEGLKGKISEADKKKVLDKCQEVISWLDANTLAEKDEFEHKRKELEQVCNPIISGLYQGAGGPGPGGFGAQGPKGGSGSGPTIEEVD

Row | Molecule | loss of ΔΨm, cells (PC12 cells [1]; Hsp72 expressing PC12 cells) [%] | loss of ΔΨm, cells (PC12 cells [1]; control (Neo) PC12 cells) [%] | release of cytochrome c induced by thapsigargin (PC12 cells [2]; Hsp72 expressing PC12 cells, compared with Neo cells) | release of cytochrome c from mitochondria to the cytoplasm (PC12 cells [2]; control (Neo) PC12 cells) | binding result [3]
1 | C/C=C(/C)C(=O)O[C@H]1C(C)=C2[C@H]([C@@H]1OC(=O)CCCCCCC)[C@@](C)(OC(C)=O)C[C@H](OC(=O)CCC)[C@@]1(O)[C@H]2OC(=O)[C@@]1(C)O [thapsigargin] | 50 | 80 | significantly reduced | triggered release of cytochrome c | 
2 | tunicamycin | 50 | 90 |  |  | 
3 | B1 |  |  |  |  | no binding
